Source: patent US12187723B2 (BRISTOL-MYERS SQUIBB COMPANY, priority 2019, dated 2025)

Assays:
human TLR9 = target: T1, human TLR9 (Homo sapiens, UniProt Q9NR96); assay: TLR9 inhibition reporter assay (HEK-Blue SEAP); format: cell-based; settings: HEK-Blue cells overexpressing human TLR9, ODN2006 5 nM, 22 hour incubation
T1 construct: host or cells: HEK-Blue cells
T1 sequence (Q9NR96 26-1032): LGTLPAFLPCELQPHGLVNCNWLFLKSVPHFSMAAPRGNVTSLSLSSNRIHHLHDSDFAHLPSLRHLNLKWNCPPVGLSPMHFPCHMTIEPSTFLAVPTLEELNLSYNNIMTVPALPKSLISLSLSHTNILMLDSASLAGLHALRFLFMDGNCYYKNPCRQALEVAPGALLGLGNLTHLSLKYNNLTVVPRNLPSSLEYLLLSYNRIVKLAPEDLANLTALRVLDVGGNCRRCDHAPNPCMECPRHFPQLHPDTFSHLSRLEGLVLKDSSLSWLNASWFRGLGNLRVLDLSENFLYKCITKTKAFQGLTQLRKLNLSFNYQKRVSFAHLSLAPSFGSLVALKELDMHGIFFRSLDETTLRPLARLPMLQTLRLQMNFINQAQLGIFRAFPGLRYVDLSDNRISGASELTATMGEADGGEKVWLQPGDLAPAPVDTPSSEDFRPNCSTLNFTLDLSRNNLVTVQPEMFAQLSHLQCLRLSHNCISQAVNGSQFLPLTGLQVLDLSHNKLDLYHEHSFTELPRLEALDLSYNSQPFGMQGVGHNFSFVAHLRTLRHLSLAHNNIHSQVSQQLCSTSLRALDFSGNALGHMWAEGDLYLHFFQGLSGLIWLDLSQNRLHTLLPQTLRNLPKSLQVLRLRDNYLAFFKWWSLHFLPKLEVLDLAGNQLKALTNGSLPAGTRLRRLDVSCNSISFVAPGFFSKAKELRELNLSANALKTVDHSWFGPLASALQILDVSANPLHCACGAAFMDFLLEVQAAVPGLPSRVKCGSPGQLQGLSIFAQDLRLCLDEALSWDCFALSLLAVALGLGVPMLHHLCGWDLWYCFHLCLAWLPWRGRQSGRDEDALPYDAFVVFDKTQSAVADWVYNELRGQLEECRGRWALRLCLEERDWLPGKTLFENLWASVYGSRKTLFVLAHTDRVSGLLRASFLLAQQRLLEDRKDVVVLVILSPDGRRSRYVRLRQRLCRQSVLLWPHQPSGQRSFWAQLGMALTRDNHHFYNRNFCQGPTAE
In short: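 Dose–response from 0.05 nM to 50 μM was run in HEK-Blue human TLR7, TLR8 and TLR9 reporter cells. After 30 min at room temperature with compound, ligand was added (TLR7 gardiquimod 7.5 μM; TLR8 R848 15.9 μM; TLR9 ODN2006 5 nM) and SEAP measured next day, at 22 h.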

human TLR7 = target: T2, human TLR7 (Homo sapiens, UniProt Q9NYK1); assay: TLR7 inhibition reporter assay (HEK-Blue SEAP); format: cell-based; settings: HEK-Blue cells overexpressing human TLR7, gardiquimod 7.5 μM, 22 hour incubation
T2 construct: host or cells: HEK-Blue cells
T2 sequence (Q9NYK1 27-1049): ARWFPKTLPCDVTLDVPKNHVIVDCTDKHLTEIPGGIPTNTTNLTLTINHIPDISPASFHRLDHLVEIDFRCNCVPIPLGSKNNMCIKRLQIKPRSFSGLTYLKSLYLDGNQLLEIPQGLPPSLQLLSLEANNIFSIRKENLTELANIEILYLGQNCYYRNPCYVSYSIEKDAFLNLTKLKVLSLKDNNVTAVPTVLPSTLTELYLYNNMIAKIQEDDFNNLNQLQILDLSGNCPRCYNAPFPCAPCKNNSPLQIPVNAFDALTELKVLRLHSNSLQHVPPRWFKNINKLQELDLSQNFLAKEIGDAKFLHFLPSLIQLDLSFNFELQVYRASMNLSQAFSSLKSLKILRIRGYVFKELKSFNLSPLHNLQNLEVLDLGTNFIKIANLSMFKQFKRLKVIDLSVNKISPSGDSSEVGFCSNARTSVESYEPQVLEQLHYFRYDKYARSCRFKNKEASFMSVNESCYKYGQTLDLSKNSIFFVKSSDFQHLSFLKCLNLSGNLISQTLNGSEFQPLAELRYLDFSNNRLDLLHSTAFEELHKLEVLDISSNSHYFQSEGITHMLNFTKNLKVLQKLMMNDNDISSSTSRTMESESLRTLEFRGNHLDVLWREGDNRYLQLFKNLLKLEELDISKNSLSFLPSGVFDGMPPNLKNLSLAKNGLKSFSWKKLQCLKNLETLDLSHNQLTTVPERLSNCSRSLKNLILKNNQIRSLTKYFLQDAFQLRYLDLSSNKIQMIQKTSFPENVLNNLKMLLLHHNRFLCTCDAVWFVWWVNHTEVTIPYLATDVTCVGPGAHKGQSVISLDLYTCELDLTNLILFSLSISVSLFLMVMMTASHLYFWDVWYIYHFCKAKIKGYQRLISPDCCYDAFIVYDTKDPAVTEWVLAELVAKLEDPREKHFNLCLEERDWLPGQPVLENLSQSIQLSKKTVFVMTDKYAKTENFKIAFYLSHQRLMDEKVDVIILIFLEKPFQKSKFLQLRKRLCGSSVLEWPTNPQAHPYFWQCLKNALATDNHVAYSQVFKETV
In short: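 In this cell reporter format, test compounds at 0.05 nM-50 μM final incubate 22 h with seeded cells (TLR7 15000, TLR8 20,000 per well). SEAP read-out by HEK-Blue Detection medium yields % inhibition relative to agonist/DMSO and known-inhibitor wells.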

IC50 (human TLR9) [µM]	IC50 (human TLR7) [nM]	Structure (SMILES)
34.2	44.1	COc1cc(-c2cc3[nH]c(=O)n([C@@H]4CCCN(CC(C)(C)C)C4)c3cc2C(F)(F)F)cn2ncnc12 [Example 116, (R)-5-(8-methoxy-[1,2,4]triazolo[1,5-a]pyridin-6-yl)-1-(1-neopentylpiperidin-3-yl)-6-(trifluoromethyl)-1,3-dihydro-2H-benzo[d]imidazol-2-one]
11.8	64.4	CCC(CC)CN1CCC[C@@H](n2c(=O)[nH]c3cc(-c4cc(OC)c5ncnn5c4)c(C(F)(F)F)cc32)C1 [Example 117, (R)-1-(1-(2-ethylbutyl)piperidin-3-yl)-5-(8-methoxy-[1,2,4]triazolo[1,5-a]pyridin-6-yl)-6-(trifluoromethyl)-1,3-dihydro-2H-benzo[d]imidazol-2-one]
18.1	26.5	COCCN1CCC[C@@H](n2c(=O)[nH]c3cc(-c4cc(OC)c5ncnn5c4)c(C(F)(F)F)cc32)C1 [Example 118, (R)-5-(8-methoxy-[1,2,4]triazolo[1,5-a]pyridin-6-yl)-1-(1-(2-methoxyethyl)piperidin-3-yl)-6-(trifluoromethyl)-1,3-dihydro-2H-benzo[d]imidazol-2-one]
26.3	31.8	COc1cc(-c2cc3[nH]c(=O)n([C@H]4CCCN(C)C4)c3cc2C(C)C)cn2ncnc12 [Example 119, (S)-6-isopropyl-5-(8-methoxy-[1,2,4]triazolo[1,5-a]pyridin-6-yl)-1-(1-methylpiperidin-3-yl)-1,3-dihydro-2H-benzo[d]imidazol-2-one]
1.94	0.64	COc1cc(-c2cc3[nH]c(=O)n([C@H]4CCCN(C(C)C)C4)c3cc2C(C)C)cn2ncnc12 [Example 120, (S)-6-isopropyl-1-(1-isopropylpiperidin-3-yl)-5-(8-methoxy-[1,2,4]triazolo[1,5-a]pyridin-6-yl)-1,3-dihydro-2H-benzo[d]imidazol-2-one]
13.6	28.6	CCCN1CCC[C@H](n2c(=O)[nH]c3cc(-c4cc(OC)c5ncnn5c4)c(C(C)C)cc32)C1 [Example 121, (S)-6-isopropyl-5-(8-methoxy-[1,2,4]triazolo[1,5-a]pyridin-6-yl)-1-(1-propylpiperidin-3-yl)-1,3-dihydro-2H-benzo[d]imidazol-2-one]
12.7	15.1	COc1cc(-c2cc3[nH]c(=O)n([C@H]4CCCN(C5CCC5)C4)c3cc2C(C)C)cn2ncnc12 [Example 122, (S)-1-(1-cyclobutylpiperidin-3-yl)-6-isopropyl-5-(8-methoxy-[1,2,4]triazolo[1,5-a]pyridin-6-yl)-1,3-dihydro-2H-benzo[d]imidazol-2-one]
> 50	125	COc1cc(-c2cc3[nH]c(=O)n([C@H]4CCCN(C5COC5)C4)c3cc2C(C)C)cn2ncnc12 [Example 123, (S)-6-isopropyl-5-(8-methoxy-[1,2,4]triazolo[1,5-a]pyridin-6-yl)-1-(1-(oxetan-3-yl)piperidin-3-yl)-1,3-dihydro-2H-benzo[d]imidazol-2-one]
20.8	63.8	COc1cc(-c2cc3[nH]c(=O)n([C@H]4CCCN(C5CCOCC5)C4)c3cc2C(C)C)cn2ncnc12 [Example 124, (S)-6-isopropyl-5-(8-methoxy-[1,2,4]triazolo[1,5-a]pyridin-6-yl)-1-(1-(tetrahydro-2H-pyran-4-yl)piperidin-3-yl)-1,3-dihydro-2H-benzo[d]imidazol-2-one]
7.72	34.1	COc1cc(-c2cc3[nH]c(=O)n([C@H]4CCCN(CC5CCOCC5)C4)c3cc2C(C)C)cn2ncnc12 [Example 125, (S)-6-isopropyl-5-(8-methoxy-[1,2,4]triazolo[1,5-a]pyridin-6-yl)-1-(1-((tetrahydro-2H-pyran-4-yl)methyl)piperidin-3-yl)-1,3-dihydro-2H-benzo[d]imidazol-2-one]
